Measured values from ChEMBL document CHEMBL3507680, “University of Dundee, Gates Library screen for HepG2 cell viability”.

Test: Human HepG2 cell viability assay in 384 well format
Format: toxicity, cell-based
Parameters: dose 125 nL, time 70.5 hour; concentration not given beside the values
Conditions: HepG2 cells, read-out: Inhibition

SMILES | cytotoxicity at 70.5 h [%]
Cc1cnn(CC(C)NCc2ccc(-n3cccn3)cc2)c1 (stereo not given) | 30.2
COc1ncccc1C(=O)N1CCN(C(=O)Cc2ccccn2)CC1 | 6.6
Cc1ccc(CC(=O)NCCCNS(C)(=O)=O)cc1 | 1.07
Cc1nc(CN2CCN(C(=O)c3ccn(C)c(=O)c3)CC2)cs1 | 7.44
CC(C)(C)NC(=O)C1CSCN1S(=O)(=O)c1ccc(F)cc1 (stereo not given) | -1.49
Cn1ccc(C(=O)N2CCN(CCc3ccccc3)CC2)cc1=O | -1.11
O=C(c1ccc(O)c(Cl)c1)N1CCC(c2n[nH]c(C3CC3)n2)CC1 | 36.5
CC(NC(=O)NCCCNS(C)(=O)=O)c1ccncc1 (stereo not given) | 1.41
CCn1cc(NC(=O)C2CCN(Cc3noc(C(C)C)n3)CC2)cn1 | 0.996
COCCCNC(=O)NCc1ccc(C)cc1 | 8.59
CCc1nc(CC(=O)N2CCN(c3cnccn3)CC2)cs1 | -0.0277
CCCc1nc(CN2CCN(Cc3noc(CCC)n3)CC2)no1 | 11.4
O=C(CCNc1ncccn1)N1CCCC(n2ccnc2)C1 (stereo not given) | -2.71
CN(C)S(=O)(=O)c1ccc(OCCNCCn2cccn2)cc1 | 33.7
Cc1cc(C)n(C2CN(CC(=O)NC3CCOCC3)C2)n1 | -0.827
CCCc1n[nH]c(C2CN(CCCS(C)(=O)=O)CCO2)n1 (stereo not given) | -4.54
COc1c(CNCc2ccnc(N3CCCC3)c2)c(C)nn1C | -0.752
O=C(CCc1cscn1)N1CCCC(n2ccnc2)C1 (stereo not given) | 2.29
Cc1cccc(-c2nc(CN(Cc3cccs3)CC3CCCO3)no2)c1 (stereo not given) | -1.72
Cc1cnn(CC(C)NCc2csc(-c3ccsc3)n2)c1 (stereo not given) | -0.817

SMILES | cytotoxicity at 70.5 h [%]
COc1cc(C(=O)N2CCC(c3n[nH]c(C4CC4)n3)CC2)ccc1C | 36.5
CC1CCN(S(=O)(=O)NCc2ccccc2Cn2cncn2)CC1 | -2.92
CC(C(=O)N1CCN(c2ccccc2Cl)CC1)n1cncn1 (stereo not given) | 10.3
COc1cc(/C=C/c2ncc(C(=O)O)s2)cc(Cl)c1O | 7.03
CN1CCCc2cc(CNC(=O)c3ccncc3)ccc21 | 33.4
CC(C)Sc1ncccc1C(=O)NCc1ccc(CS(C)(=O)=O)cc1 | 6.05
CN1N=C(C(=O)NCc2ccc3c(c2)CCCN3C)CCC1=O | 5.34
Cc1cc(C)c(CNC(=O)N2CCCC2c2ccccc2)c(=O)[nH]1 (stereo not given) | 2.02
Cc1cc(C)c(CNC(=O)N2CCCC2c2cccn2C)c(=O)[nH]1 (stereo not given) | 5.45
O=C(NCCNc1cnccn1)N1CCN(Cc2cccnc2)CC1 | 33.3
O=S(=O)(NCc1ccccc1Cn1cncn1)C1CCCC1 | 2.05
CC(=O)N1CCN(C(=O)C(C)n2cncn2)CC1 (stereo not given) | 5.31
Cc1cnn(C2CCCN(C(=O)c3ccnc(-n4ccnc4)c3)C2)c1 (stereo not given) | -0.996
CCOCCC(=O)N1CCCN(Cc2csc(CC)n2)CC1 | -0.403
Cc1ccc(NC2CCN(C(=O)COCC(F)(F)F)CC2)nn1 | 10.1
Cc1n[nH]c(C2CN(C(=O)Cn3ccccc3=O)CCO2)n1 (stereo not given) | 7.95
CCCc1nc(CN2CCCC(Cn3cncn3)C2)no1 (stereo not given) | 3.03
COC(CNC(=O)N1CCC(n2cncn2)CC1)c1ccccc1 (stereo not given) | 6.02
Cc1ccc(N2CCCC(NCC(=O)NCC3CC3)C2)nn1 (stereo not given) | 1.19
CCc1nc(CN2CCCN(C(=O)CCc3ccco3)CC2)cs1 | 27.3

SMILES | cytotoxicity at 70.5 h [%]
O=C(c1cnc(C2CC2)s1)N1CCCCC1Cn1cccn1 (stereo not given) | 0.664
CCc1cc(C)c(C(=O)N2CCCC2CC(=O)c2cnn(C)c2)o1 (stereo not given) | 6.36
CCc1nc(CN(C)C2CCN(CCn3cc(C#N)cn3)C2)no1 (stereo not given) | 37.1
c1csc(-c2nc(CN3CCOC(Cn4cncn4)C3)co2)c1 (stereo not given) | -0.51
O=C(c1cnc(-c2cccs2)s1)N1CCCN2CCCC2C1 (stereo not given) | -5.78
Cc1ccc(N2CCCC(NCc3cscn3)C2)nn1 (stereo not given) | -11.8
CCOc1nnc(CNC2CCCN(c3ccc(C)nn3)C2)s1 (stereo not given) | -1.05
Cc1ccc(NC2CCN(C(=O)Cc3csc(C)n3)CC2)nn1 | -9.75
COc1ccccc1C(=O)N1CCCC1Cn1cc(C)cn1 (stereo not given) | -14.4
CCCc1nc(CN2CCOC(CNc3cccnn3)C2)cs1 (stereo not given) | -11.7
CC(O)CN1CCN(C(=O)c2ccc(Cn3cccn3)cc2)CC1 (stereo not given) | -7.08
CCc1nc(CN(C)C2CCN(Cc3ccc(C#N)cc3F)C2)no1 (stereo not given) | 14.4
Cc1nn(C)c(Cl)c1C1CCCN1C(=O)c1nccnc1N (stereo not given) | -11.6
O=C(NCCc1cccc(F)c1)NCC(O)c1cccc(F)c1 (stereo not given) | -5.32
COCc1ccccc1CNCc1c(C)nn(C)c1N(C)C | -0.163
CN(C)c1ccc(CCNC(=O)NCc2ccc(N(C)C)nc2)cc1 | -3.36
CCOc1cccc(CNC(=O)NCC(O)c2cccc(F)c2)c1 (stereo not given) | 10.6
O=C(c1cccc2c1OCO2)N1CCCC(n2cccn2)C1 (stereo not given) | -9.01
Fc1cccc(-c2nc(CN3CCOC(Cn4cccn4)C3)co2)c1 (stereo not given) | -11.5
Cn1ncc2c1CCCC2NCc1cccc(F)c1 (stereo not given) | -14.3
